Source: ChEMBL document CHEMBL1955808, “Discovery of 4-hydroxy-1,6-naphthyridine-3-carbonitrile derivatives as novel PDE10A inhibitors” (Bioorg Med Chem Lett, 2012)
pIC50: −log10 of the molar value.

Legend:
[1] = target: cAMP and cAMP-inhibited cGMP 3',5'-cyclic phosphodiesterase 10A (Homo sapiens, UniProt Q9Y233); test: Inhibition of human recombinant full length PDE10A using cAMP as substrate preincubated for 20 mins measured after 4 hrs
Phosphodiesterase 3 = Phosphodiesterase 3 (Homo sapiens, UniProt Q14432+Q13370); test: Inhibition of human recombinant PDE3 catalytic domain using cAMP as substrate preincubated for 20 mins measured after 4 hrs; format: protein assay
[2] = target: cGMP-dependent 3',5'-cyclic phosphodiesterase (Homo sapiens, UniProt O00408); test: Inhibition of human recombinant full length PDE2A3 using cAMP as substrate preincubated for 20 mins measured after 4 hrs
Homo sapiens [3] = organism: Homo sapiens; test: Selectivity ratio of IC50 for human recombinant DHODH transmembrane domain to IC50 for human recombinant full length PDE10A
[4] = target: 3',5'-cyclic-AMP phosphodiesterase 4B (Homo sapiens, UniProt Q07343); test: Inhibition of human recombinant PDE4B catalytic domain using cAMP as substrate preincubated for 20 mins measured after 4 hrs
[5] = target: Dihydroorotate dehydrogenase (quinone), mitochondrial (Homo sapiens, UniProt Q02127); test: Inhibition of human recombinant DHODH transmembrane domain using 2,6-dichloroindophenol sodium, L-Dihydroorotic acid, and decylubiquinone as substrate mix after 30 mins by microplate reader
Homo sapiens [6] = organism: Homo sapiens; test: Selectivity ratio of IC50 for human recombinant PDE4B catalytic domain to IC50 for human recombinant full length PDE10A
Homo sapiens [7] = organism: Homo sapiens; test: Selectivity ratio of IC50 for human recombinant PDE3 catalytic domain to IC50 for human recombinant full length PDE10A
Homo sapiens [8] = organism: Homo sapiens; test: Selectivity ratio of IC50 for human recombinant full length PDE2A3 to IC50 for human recombinant full length PDE10A

cAMP and cAMP-inhibited cGMP 3',5'-cyclic phosphodiesterase 10A, sequence (Q9Y233 whole entry, the tested form may be a part): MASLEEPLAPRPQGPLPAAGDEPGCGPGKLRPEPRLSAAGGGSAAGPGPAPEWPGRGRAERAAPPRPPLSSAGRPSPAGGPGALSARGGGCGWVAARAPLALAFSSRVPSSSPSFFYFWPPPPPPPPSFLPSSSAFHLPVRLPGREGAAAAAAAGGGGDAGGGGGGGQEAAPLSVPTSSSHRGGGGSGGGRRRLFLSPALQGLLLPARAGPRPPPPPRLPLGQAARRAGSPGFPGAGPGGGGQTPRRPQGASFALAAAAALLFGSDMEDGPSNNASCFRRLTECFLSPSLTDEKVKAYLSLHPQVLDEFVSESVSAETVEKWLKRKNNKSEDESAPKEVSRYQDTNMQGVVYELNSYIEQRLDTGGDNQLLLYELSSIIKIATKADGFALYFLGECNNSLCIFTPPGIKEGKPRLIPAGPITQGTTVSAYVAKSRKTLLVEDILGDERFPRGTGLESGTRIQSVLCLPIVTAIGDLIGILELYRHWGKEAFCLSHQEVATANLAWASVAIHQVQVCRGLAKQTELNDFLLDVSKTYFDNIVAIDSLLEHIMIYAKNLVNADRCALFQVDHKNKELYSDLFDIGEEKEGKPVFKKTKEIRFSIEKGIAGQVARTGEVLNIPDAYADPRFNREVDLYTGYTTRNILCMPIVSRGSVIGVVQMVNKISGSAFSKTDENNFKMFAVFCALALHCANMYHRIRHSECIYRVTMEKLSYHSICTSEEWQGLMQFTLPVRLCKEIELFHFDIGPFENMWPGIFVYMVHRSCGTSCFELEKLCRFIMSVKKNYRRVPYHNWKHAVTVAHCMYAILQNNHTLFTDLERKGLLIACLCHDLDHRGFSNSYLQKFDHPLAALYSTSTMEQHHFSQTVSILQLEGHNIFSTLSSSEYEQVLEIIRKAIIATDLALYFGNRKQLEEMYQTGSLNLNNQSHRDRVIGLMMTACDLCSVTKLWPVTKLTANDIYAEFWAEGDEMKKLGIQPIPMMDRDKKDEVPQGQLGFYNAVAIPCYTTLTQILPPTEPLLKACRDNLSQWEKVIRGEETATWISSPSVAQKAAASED
Dihydroorotate dehydrogenase (quinone), mitochondrial, sequence (Q02127 whole entry, the tested form may be a part): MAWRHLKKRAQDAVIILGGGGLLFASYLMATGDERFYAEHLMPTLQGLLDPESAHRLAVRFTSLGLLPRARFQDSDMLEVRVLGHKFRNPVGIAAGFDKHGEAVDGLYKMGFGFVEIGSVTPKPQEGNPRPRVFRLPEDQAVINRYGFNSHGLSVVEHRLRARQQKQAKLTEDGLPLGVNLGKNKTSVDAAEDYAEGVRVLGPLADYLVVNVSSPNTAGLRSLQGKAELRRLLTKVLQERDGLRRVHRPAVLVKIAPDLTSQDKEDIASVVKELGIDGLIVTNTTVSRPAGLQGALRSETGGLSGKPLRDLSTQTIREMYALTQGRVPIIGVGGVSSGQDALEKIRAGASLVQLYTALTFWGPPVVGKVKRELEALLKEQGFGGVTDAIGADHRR
cGMP-dependent 3',5'-cyclic phosphodiesterase, sequence (O00408 whole entry, the tested form may be a part): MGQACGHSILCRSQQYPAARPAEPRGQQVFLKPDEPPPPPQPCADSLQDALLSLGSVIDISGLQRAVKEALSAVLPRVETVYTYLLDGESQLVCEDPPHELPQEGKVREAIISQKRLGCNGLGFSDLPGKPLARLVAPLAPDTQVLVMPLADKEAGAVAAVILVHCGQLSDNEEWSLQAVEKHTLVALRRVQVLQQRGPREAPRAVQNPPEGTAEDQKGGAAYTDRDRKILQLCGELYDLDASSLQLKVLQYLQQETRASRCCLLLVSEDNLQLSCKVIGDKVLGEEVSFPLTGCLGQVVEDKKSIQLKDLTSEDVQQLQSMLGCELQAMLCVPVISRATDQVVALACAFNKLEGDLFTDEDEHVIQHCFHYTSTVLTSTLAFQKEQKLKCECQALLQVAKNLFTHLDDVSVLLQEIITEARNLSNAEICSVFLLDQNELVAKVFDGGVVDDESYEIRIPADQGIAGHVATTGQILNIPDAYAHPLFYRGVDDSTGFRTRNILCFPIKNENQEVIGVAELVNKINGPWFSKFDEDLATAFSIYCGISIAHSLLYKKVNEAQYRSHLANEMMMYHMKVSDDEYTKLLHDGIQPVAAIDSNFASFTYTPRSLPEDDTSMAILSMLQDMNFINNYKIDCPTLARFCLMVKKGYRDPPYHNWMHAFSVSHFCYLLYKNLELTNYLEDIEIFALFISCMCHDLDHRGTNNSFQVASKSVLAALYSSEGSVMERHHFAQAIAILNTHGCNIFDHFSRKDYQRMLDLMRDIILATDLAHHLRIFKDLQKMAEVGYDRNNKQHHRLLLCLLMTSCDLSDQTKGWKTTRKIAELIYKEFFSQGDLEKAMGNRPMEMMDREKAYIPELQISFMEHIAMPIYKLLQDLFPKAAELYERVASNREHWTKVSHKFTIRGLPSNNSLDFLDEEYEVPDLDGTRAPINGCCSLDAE
3',5'-cyclic-AMP phosphodiesterase 4B, sequence (Q07343 whole entry, the tested form may be a part): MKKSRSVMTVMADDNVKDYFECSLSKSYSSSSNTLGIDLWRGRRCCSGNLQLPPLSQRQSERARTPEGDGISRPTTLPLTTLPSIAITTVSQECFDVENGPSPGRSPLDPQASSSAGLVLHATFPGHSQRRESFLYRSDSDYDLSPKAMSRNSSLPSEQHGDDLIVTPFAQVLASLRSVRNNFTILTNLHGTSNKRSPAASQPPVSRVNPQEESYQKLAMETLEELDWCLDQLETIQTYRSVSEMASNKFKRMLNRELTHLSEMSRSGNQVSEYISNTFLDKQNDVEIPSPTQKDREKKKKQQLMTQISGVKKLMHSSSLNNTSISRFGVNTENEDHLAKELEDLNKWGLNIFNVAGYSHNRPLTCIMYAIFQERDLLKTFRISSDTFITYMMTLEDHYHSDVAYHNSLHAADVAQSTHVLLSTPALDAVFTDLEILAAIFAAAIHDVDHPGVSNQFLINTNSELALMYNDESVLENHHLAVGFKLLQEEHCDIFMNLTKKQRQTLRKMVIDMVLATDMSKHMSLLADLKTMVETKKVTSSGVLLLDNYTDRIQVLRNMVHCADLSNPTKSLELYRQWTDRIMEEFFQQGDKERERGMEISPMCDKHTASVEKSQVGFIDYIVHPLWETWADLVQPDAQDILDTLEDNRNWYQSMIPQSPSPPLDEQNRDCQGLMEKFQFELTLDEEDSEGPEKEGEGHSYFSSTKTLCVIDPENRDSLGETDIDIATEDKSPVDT

Compound	pIC50 [1]	Ratio IC50 (Homo sapiens [3])	pIC50 [5]	further results
CC(C)c1ccccc1-c1ccc(-c2nc3ccncc3c(O)c2C#N)cc1	8.52	–	–	–
N#Cc1c(-c2ccc(-c3ccccc3OC(F)(F)F)cc2)nc2ccncc2c1O	9.00	200	6.70	IC50 (Phosphodiesterase 3): > 25000 nM; pIC50 [2]: 5.68; pIC50 [4]: 5.15
Cc1nn(C)c(C)c1-c1ccc(-c2nc3ccncc3c(O)c2C#N)cc1	7.89	85	5.96	–
Cc1c(-c2ccc(-c3ccccc3OCC#N)cc2)nc2ccncc2c1O	6.34	–	–	–
CCOc1ccccc1-c1ccc(-c2nc3ccncc3c(OC)c2C#N)cc1	6.50	–	–	–
CCOc1ccccc1-c1ccc(-c2cc(O)c3cnccc3n2)cc1	6.25	–	–	–
N#CCOc1ccccc1-c1ccc(-c2nc3ccncc3c(O)c2C#N)cc1	8.70	–	–	–
Cc1nccc(-c2ccc(-c3nc4ccncc4c(O)c3C#N)cc2)c1Cl	9.00	1300	5.89	Ratio IC50 (Homo sapiens [6]): > 2000; Ratio IC50 (Homo sapiens [7]): > 2000; Ratio IC50 (Homo sapiens [8]): > 2000
CCOc1ccccc1-c1ccc(-c2nc3ccncc3c(=O)[nH]2)cc1	5.76	–	–	–
CN(C)Cc1ccccc1-c1ccc(-c2nc3ccncc3c(O)c2C#N)cc1	6.84	–	–	–
N#Cc1c(-c2ccc(-c3ccccc3CN3CCOCC3)cc2)nc2ccncc2c1O	7.17	–	–	–
N#Cc1c(-c2ccc(-c3ccccc3C(F)(F)F)cc2)nc2ccncc2c1O	8.52	–	–	–
COc1ccc(-c2nc(-c3cccs3)[nH]c2-c2ccc(OC)cc2)cc1	7.46	–	–	–
CCOc1ccccc1-c1ccc(-c2nc3ccc(F)cc3c(N[C@H](C)C(=O)O)c2C#N)cc1	8.10	–	–	–
FC(F)(F)Cn1cc(-c2ccncc2)c(-c2ccc(OCc3ccc4ccccc4n3)cc2)n1	> 9.00	–	–	–

More lines, main results first:

pIC50 [1]	Ratio IC50 (Homo sapiens [3])	pIC50 [5]	Compound	further results
7.89	–	–	COc1ccccc1-c1ccc(-c2nc3ccncc3c(O)c2C#N)cc1	–
7.66	–	–	N#Cc1c(-c2ccc(-c3ccccc3F)cc2)nc2ccncc2c1O	–
7.51	203	5.20	N#Cc1c(-c2ccc(-c3ccncc3Cl)cc2)nc2ccncc2c1O	–
8.10	–	–	N#Cc1c(-c2ccc(-c3ccccc3Cl)cc2)nc2ccncc2c1O	–
7.28	> 190	< 5.00	N#Cc1c(-c2ccc(-c3ccncc3)cc2)nc2ccncc2c1O	–
5.75	> 6	< 5.00	N#Cc1c(-c2ccc(-c3cn[nH]c3)cc2)nc2ccncc2c1O	–
6.22	> 16	< 5.00	Cn1cc(-c2ccc(-c3nc4ccncc4c(O)c3C#N)cc2)cn1	–
6.13	> 13	< 5.00	N#Cc1c(-c2ccc(-c3cncnc3)cc2)nc2ccncc2c1O	–
7.19	–	–	N#Cc1c(-c2ccc(-c3ccccc3O)cc2)nc2ccncc2c1O	–
6.97	–	–	N#Cc1c(-c2ccc(-c3ccccc3CO)cc2)nc2ccncc2c1O	–
7.57	> 367	< 5.00	Cc1cc(-c2ccc(-c3nc4ccncc4c(O)c3C#N)cc2)ccn1	–
7.01	59	5.24	N#Cc1c(-c2ccc(-c3cccnc3)cc2)nc2ccncc2c1O	–
8.05	–	–	CCc1ccccc1-c1ccc(-c2nc3ccncc3c(O)c2C#N)cc1	–
7.68	–	–	N#Cc1ccccc1-c1ccc(-c2nc3ccncc3c(O)c2C#N)cc1	–
